In the test the target is Factor D (Homo sapiens (Human), UniProt P00746). Kind of test: Factor D esterolytic assay (Z-Lys-SBzl substrate, DTNB, 405 nm). Format: biochemical. The settings on record: Z-Lys-SBzl 1.29 mM, pH 7.5, 10% DMSO, tested a minimum of three times, read-out: Measured Ki (IC50) Value for Compounds: IC50. Summed up: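 Thioester hydrolysis (Z-Lys-SBzl, 1.29 mM) by human Factor D ([…]) detected through DTNB color at 405 nm over 600 sec, minus 690 nm background. Buffer: 100 mM HEPES pH 7.5, 500 mM NaCl, 10% DMSO; optional room-temperature preincubation before substrate. IC50 derived from percent rate inhibition; at least three runs.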
Chain of Factor D (P00746 26-253): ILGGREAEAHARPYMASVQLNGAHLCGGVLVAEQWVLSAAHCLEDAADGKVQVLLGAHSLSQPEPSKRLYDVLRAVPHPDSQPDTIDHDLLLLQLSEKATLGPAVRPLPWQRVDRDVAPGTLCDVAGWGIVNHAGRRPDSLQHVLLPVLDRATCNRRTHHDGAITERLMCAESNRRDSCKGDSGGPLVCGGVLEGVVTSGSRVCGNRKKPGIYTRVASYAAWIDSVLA
By IC50 is commonly meant the point on the concentration scale where inhibition reaches its midpoint. With `CC(C)Cc1cc2cc(COc3ccccc3CC(=O)O)cc(-c3cccc(CN)c3F)c2o1` [Compound 200e, 2-(2-((7-(3-(aminomethyl)-2-fluorophenyl)-2-isobutylbenzofuran-5-yl)methoxy)phenyl)acetic acid], the IC50 is under 1000 nM.

Consider `CC(C)Cc1cc2cc(COc3ccccc3CC(=O)O)cc(-c3cccc(CN)c3)c2o1` [Compound 201b, 2-(2-((7-(3-(aminomethyl)phenyl)-2-isobutylbenzofuran-5-yl)methoxy)phenyl)acetic acid], for which the IC50 is under 1000 nM.

With `Cc1ccc(CC(=O)O)c(OCc2cc(-c3cccc(CN)c3)c3occc3c2)c1` [Compound 202c, 2-(2-((7-(3-(aminomethyl)phenyl)benzofuran-5-yl)methoxy)-4-methylphenyl)acetic acid], the IC50 was under 1000 nM.

Take `NCc1cccc(-c2cc(COc3cc(C4CC4)ccc3CC(=O)O)cc3ccoc23)c1` [Compound 203c, 2-(2-((7-(3-(aminomethyl)phenyl)benzofuran-5-yl)methoxy)-4-cyclopropylphenyl)acetic acid]: the IC50 is under 1000 nM.

For `Nc1ccc2c(-c3cc(COc4ccccc4CC(=O)O)cc4ccoc34)ncnn12` [Compound 204e, 2-(2-((7-(7-aminopyrrolo[2,1-f][1,2,4]triazin-4-yl)benzofuran-5-yl)methoxy)phenyl)acetic acid], the IC50 is over 10000 nM.

Turning to `NCc1cccc(-c2cc(COc3ccc(F)cc3CC(=O)O)cc3ccoc23)c1` [Compound 205d, 2-(2-((7-(3-(aminomethyl)phenyl)benzofuran-5-yl)methoxy)-5-fluorophenyl)acetic acid], the IC50 is under 1000 nM.

`NCc1ccc(-c2cc(COc3ccccc3CC(=O)O)cc3ccoc23)s1` [Compound 206c, 2-(2-((7-(5-(aminomethyl)thiophen-2-yl)benzofuran-5-yl)methoxy)phenyl)acetic acid]: the IC50 is under 1000 nM.

On to `NCc1ccc(-c2cc(COc3ccccc3CC(=O)O)cc3ccoc23)o1` [Compound 207c, 2-(2-((7-(5-(aminomethyl)furan-2-yl)benzofuran-5-yl)methoxy)phenyl)acetic acid], for which the IC50 is under 1000 nM.

Take `NCc1cccc(-c2cc(COc3ccc(Br)cc3CC(=O)O)cc3ccoc23)c1` [Compound 208d, 2-(2-((7-(3-(aminomethyl)phenyl)benzofuran-5-yl)methoxy)-5-bromophenyl)acetic acid]: the IC50 was under 1000 nM.

For the molecule `NCc1cccc(-c2cc(COc3ccc(N)cc3CC(=O)O)cc3ccoc23)c1` [Compound 209c, 2-(5-amino-2-((7-(3-(aminomethyl)phenyl)benzofuran-5-yl)methoxy)phenyl)acetic acid], the IC50 is under 1000 nM.

In the case of `CN1CCC(N(C)Cc2cc3cc(COc4ccccc4CC(=O)O)cc(-c4cccc(CN)c4)c3o2)CC1` [Compound 210c, 2-(2-((7-(3-(aminomethyl)phenyl)-2-((methyl(1-methylpiperidin-4-yl)amino)methyl)benzofuran-5-yl)methoxy)phenyl)acetic acid], the IC50 was under 1000 nM.

For `CS(=O)(=O)n1ccc2c(-c3ccnc(CN)c3)cc(COc3ccccc3CC(=O)O)cc21` [Compound 211c, 2-(2-((4-(2-(aminomethyl)pyridin-4-yl)-1-(methylsulfonyl)-1H-indol-6-yl)methoxy)phenyl)acetic acid], the IC50 is under 1000 nM.

Turning to `NCc1cc(-c2cc(COc3ccccc3CC(=O)O)cc3[nH]ccc23)ccn1` [Compound 211e, 2-(2-((4-(2-(aminomethyl)pyridin-4-yl)-1H-indol-6-yl)methoxy)phenyl)acetic acid], the IC50 was under 1000 nM.

As for `NCc1cccc(-c2cc(COc3ccccc3CC(=O)O)cc3c2ccn3S(=O)(=O)C2CC2)c1` [Compound 212e, 2-(2-((4-(3-(aminomethyl)phenyl)-1-(cyclopropylsulfonyl)-1H-indol-6-yl)methoxy)phenyl)acetic acid], the IC50 was under 1000 nM.

As for `NCc1cccc(-c2cc(COc3ccccc3CC(=O)O)cc3c2ccn3S(=O)(=O)C2CC2)c1F` [Compound 213b, 2-(2-((4-(3-(aminomethyl)-2-fluorophenyl)-1-(cyclopropylsulfonyl)-1H-indol-6-yl)methoxy)phenyl)acetic acid], the IC50 is under 1000 nM.

In the case of `NCc1cccc(-c2cc(COc3ccccc3CC(=O)O)cc3ccsc23)c1` [Compound 214f, 2-(2-((7-(3-(aminomethyl)phenyl)benzo[b]thiophen-5-yl)methoxy)phenyl)acetic acid], the IC50 is under 1000 nM.

With `NCc1cccc(-c2cc(COc3ccccc3CC(=O)O)cc3sc(Cl)cc23)c1` [Compound 215h, 2-(2-((4-(3-(aminomethyl)phenyl)-2-chlorobenzo[b]thiophen-6-yl)methoxy)phenyl)acetic acid], the IC50 is under 1000 nM.

Turning to `NCc1cccc(-c2cc(NC(=O)c3ccccc3N)cc3ccoc23)c1` [Compound 216d, 2-amino-N-(7-(3-(aminomethyl)phenyl)benzofuran-5-yl)benzamide], the IC50 is over 10000 nM.

In the case of `Cn1ccc2cc(COc3ccccc3CC(=O)O)cc(-c3cccc(CN)c3)c21` [Compound 218f, 2-(2-((7-(3-(aminomethyl)phenyl)-1-methyl-1H-indol-5-yl)methoxy)phenyl)acetic acid], the IC50 is over 10000 nM.

With `CC(C)Cc1cc2cc(COc3ccccc3CC(=O)O)cc(-c3ccnc(CN)c3)c2o1` [Compound 219c, 2-(2-((7-(2-(aminomethyl)pyridin-4-yl)-2-isobutylbenzofuran-5-yl)methoxy)phenyl)acetic acid], the IC50 was under 1000 nM.

As for `CC(C)Cc1cc2cc(COc3ccccc3CC(=O)O)cc(-c3ccnc(CN)c3F)c2o1` [Compound 220g, 2-(2-((7-(2-(aminomethyl)-3-fluoropyridin-4-yl)-2-isobutylbenzofuran-5-yl)methoxy)phenyl)acetic acid], the IC50 is under 1000 nM.

On to `NCc1cc(-c2cc(COc3ccccc3CC(=O)O)cc3sccc23)ccn1` [Compound 221c, 2-(2-((4-(2-(aminomethyl)pyridin-4-yl)benzo[b]thiophen-6-yl)methoxy)phenyl)acetic acid], for which the IC50 is under 1000 nM.

`CC(=O)NC(C(=O)O)c1ccccc1OCc1cc(-c2cccc(CN)c2)c2occc2c1` (centres unmarked) [Compound 222f, 2-acetamido-2-(2-((7-(3-(aminomethyl)phenyl)benzofuran-5-yl)methoxy)phenyl)acetic acid]: the IC50 was under 1000 nM.

Turning to `NCc1cccc(-c2cc(COc3ccccc3C(NC(=O)C3CC3)C(=O)O)cc3ccoc23)c1` (centres unmarked) [Compound 223e, 2-(2-((7-(3-(aminomethyl)phenyl)benzofuran-5-yl)methoxy)phenyl)-2-(cyclopropanecarboxamido)acetic acid], the IC50 is under 1000 nM.

For the molecule `CC(=O)Nc1ccc(CC(=O)O)c(OCc2cc(-c3cccc(CN)c3)c3occc3c2)c1` [Compound 224c, 2-(4-acetamido-2-((7-(3-(aminomethyl)phenyl)benzofuran-5-yl)methoxy)phenyl)acetic acid], the IC50 was under 1000 nM.

As for `NCc1cccc(-c2cc(COc3ccccc3CC(=O)O)cc3oc(Cl)cc23)c1` [Compound 225h, 2-(2-((4-(3-(aminomethyl)phenyl)-2-chlorobenzofuran-6-yl)methoxy)phenyl)acetic acid], the IC50 was under 1000 nM.

As to `NCc1cc(-c2cc(COc3ccccc3CC(=O)O)cc3cc(C(F)(F)F)oc23)ccn1` [Compound 226c, 2-(2-((7-(2-(aminomethyl)pyridin-4-yl)-2-(trifluoromethyl)benzofuran-5-yl)methoxy)phenyl)acetic acid], the IC50 is under 1000 nM.

As to `NCc1cccc(-c2cc(COc3ccccc3CC(=O)O)cc3cc(F)oc23)c1` [Compound 227e, 2-(2-((7-(3-(aminomethyl)phenyl)-2-fluorobenzofuran-5-yl)methoxy)phenyl)acetic acid], the IC50 is under 1000 nM.

For `CC(C)S(=O)(=O)n1ccc2c(-c3cccc(CN)c3)cc(COc3ccccc3CC(=O)O)cc21` [Compound 228e, 2-(2-((4-(3-(aminomethyl)phenyl)-1-(isopropylsulfonyl)-1H-indol-6-yl)methoxy)phenyl)acetic acid], the IC50 was under 1000 nM.

For `CC(C)S(=O)(=O)n1ccc2c(-c3cccc(CN)c3F)cc(COc3ccccc3CC(=O)O)cc21` [Compound 229b, 2-(2-((4-(3-(aminomethyl)-2-fluorophenyl)-1-(isopropylsulfonyl)-1H-indol-6-yl)methoxy)phenyl)acetic acid], the IC50 is under 1000 nM.

Take `NCc1cccc(-c2cc(COc3cccnc3CC(=O)O)cc3ccoc23)c1` [Compound 230e, 2-(3-((7-(3-(aminomethyl)phenyl)benzofuran-5-yl)methoxy)pyridin-2-yl)acetic acid]: the IC50 was in the range of 1000 to 10000 nM.

For the molecule `NCc1cccc(-c2cc(COc3ncccc3CC(=O)O)cc3ccoc23)c1` [Compound 231c, 2-(2-((7-(3-(aminomethyl)phenyl)benzofuran-5-yl)methoxy)pyridin-3-yl)acetic acid], the IC50 was under 1000 nM.

`NCc1cc(-c2cc(COc3ccccc3CC(=O)O)cc3c2ccn3S(=O)(=O)C2CC2)ccn1` [Compound 232c, 2-(2-((4-(2-(aminomethyl)pyridin-4-yl)-1-(cyclopropylsulfonyl)-1H-indol-6-yl)methoxy)phenyl)acetic acid]: the concentration for half-maximal inhibition (IC50) was under 1000 nM.

On to `CC(C)S(=O)(=O)n1ccc2c(-c3ccnc(CN)c3)cc(COc3ccccc3CC(=O)O)cc21` [Compound 233c, 2-(2-((4-(2-(aminomethyl)pyridin-4-yl)-1-(isopropylsulfonyl)-1H-indol-6-yl)methoxy)phenyl)acetic acid], for which the IC50 was under 1000 nM.

Turning to `NCc1cccc(-c2cc(COc3ccccc3C(NC(=O)[C@@H]3C[C@H]3c3ccccc3)C(=O)O)cc3ccoc23)c1` (stereo partly drawn) [Compound 234f, 2-(2-((7-(3-(aminomethyl)phenyl)benzofuran-5-yl)methoxy)phenyl)-2-((1R,2R)-2-phenylcyclopropanecarboxamido)acetic acid], the IC50 was under 1000 nM.

The values above are taken from patent publication US11370774B2, “Substituted benzofuran, benzopyrrole, benzothiophene, and structurally related complement inhibitors” (BioCryst Pharmaceuticals, Inc., priority 2018, dated 2022).
